Assay type in all cases: cell-based
The target of assay [1] is T1, EGFR WT (Homo sapiens, UniProt P00533).
T1 construct: A431 (harboring EGFR wildtype) was purchased from ATCC; host or cells: A431
Briefly: EGFR degradation, Total EGFR (pan-EGFR) HTRF, A431. Particulars: A431 (wild-type), 6 hours; read-out: tEGFR DC50. The text has this:
(§1) NCI-H1975 (harboring EGFR heterozygous L858R-T790M mutations) and NCI-H3255 (harboring EGFR heterozygous L858R mutation) were purchased from ATCC and NCI, respectively. NCI-H1975+CS (harboring EGFR heterozygous L858R-T790M-C797S mutations) was generated using CRISPR technology to introduce the additional C797S mutation by Horizon Discovery. A431 (harboring EGFR wildtype) was purchased from ATCC. RPMI 1640 no-phenol red medium and fetal bovine serum (FBS) were purchased from Gibco (Grand Island, NY, USA). Cell culture flasks and 384-well microplates were acquired from VWR (Radnor, PA, USA). Phosphorylated (pY1068) EGFR and Total EGFR (using L858R-specific detection antibody and pan-EGFR antibody for EGFR mutant cell lines and EGFR wild-type cell lines, respectively) HTRF assay kits were purchased from Cisbio (Bedford, MA, USA).
(§2) Degradation of EGFR protein containing L858R mutation or wild-type was determined based on quantification of FRET signal using a Total EGFR (L858R-specific or pan-EGFR detecting) HTRF assay kit. Phospho-EGFR (pEGFR) inhibition was determined based on quantification of FRET signal using a pY1068 EGFR HTRF assay kit. In separate assay plates, test compounds were added to the 384-well plate from a top concentration of 10 μM with 11 points, half log titration in duplicates. For each assay, 12.5 uL of cells suspended in assay media (RPMI 1640 no-phenol red medium+10% FBS) at cell densities indicated for each cell line in Table 8 below were dispensed using a multi-channel pipette to 384-well low volume white HTRF microplates containing a duplicate concentration range of test compounds and DMSO controls. The plates were kept at 37° C. with 5% CO2 for 6 hours and then incubated with either phospho EGFR or Total EGFR HTRF detection antibodies according to the cell line and EGFR mutant being assayed. Cells treated in the absence of the test compound were the negative control. Positive control was set by wells containing all reagents but no cells. FRET signal was acquired on EnVision™ Multilabel Reader (PerkinElmer, Santa Clara, CA, USA). Compound concentration that achieves 50% degradation and inhibition was reported as DC50 and IC50, respectively.
(In general: TR-FRET usually uses a lanthanide donor and a delayed reading to cut background.)

In assay [2] the test system is BaF3 cells expressing wild-type EGFR. The assay is described as follows: Ba/F3 EGFR cell viability (CellTiter-Glo), wild-type EGFR. Particulars: Mus musculus, Ba/F3 WT EGFR, read-out: CTGlo (GI50). (In general: In ATP-based viability assays light output follows the ATP content of the culture.)
The subject of assay [3] is BaF3 cells expressing EGFR L858R-T790M. Briefly: Ba/F3 EGFR cell viability (CellTiter-Glo), L858R-T790M. The note with it: Mus musculus, read-out: CTGlo (GI50). The text has this: (§3) RPMI 1640 media, cell culture flasks, and 384-well microplates were purchased from VWR (Radnor, PA, USA). Fetal bovine serum (FBS) was purchased from Life Technologies (Carlsbad, CA, USA) and CellTiter-Glo® was purchased from Promega (Madison, WI, USA). The Ba/F3 parental cell line was purchased from CrownBio (Santa Clara, CA). BaF3 cell lines ectopically expressing the EGFR mutations L858R, L858R-T790M, L858R-C797S, and L858R-T790M-C797S were purchased from CrownBio and EGFR mutations L858R-L718Q, L858R-T790M-L718Q, L858R-L792H, and L858R-T790M-L792H, were purchased from Signosis (Santa Clara, CA).
(§4) Cell viability was assessed based on the quantification of ATP using the CellTiter-Glo® assay (Promega, Madison, WI, USA). To determine the effect of compounds on cell viability, all Ba/F3 cell lines were plated at a cell density of 2000 cells/well in 384-well plates using RPMI 1640+10% FBS and treated with compounds of interest using a 10-point half-log dilution series in duplicate for 72 hours, with the highest dose set at […]. CellTiter-Glo® reagent was then added and luminescence signals were measured using an EnVision™ Multimode plate reader (Perkin Elmer, Santa Clara, CA). For data normalization, cells untreated with the test compounds at Time=72 hours were set to 100% (equivalent to maximal cell growth after 72 hours); cells untreated with the test compounds at Time=0 hours were set to 0% (equivalent to cytostasis); and media-only wells were set to −100% (equivalent to complete cytotoxicity). % Viability was determined by normalizing the signal with positive and DMSO treated negative controls on the same microtiter plate. The half-maximal inhibition of cell growth (GI50) is computed from where the fitted curve crosses 50% while the half-maximal lethal dose (LD50) is computed from where the fitted curve crosses −50%.

Assay [4] has as its target T2, pY1068 EGFR L858R-T790M (Homo sapiens, UniProt P00533, L858R/T790M).
T2 construct: NCI-H1975 (harboring EGFR heterozygous L858R-T790M mutations); host or cells: NCI-H1975
The assay is described as follows: Phospho-EGFR (pY1068) inhibition HTRF, NCI-H1975. Particulars: 6 hours, read-out: pEGFR IC50.
Description: as §1, §2

For assay [5], the target named is T3, pY1068 EGFR L858R-T790M-C797S (Homo sapiens, UniProt P00533, C797S/L858R/T790M).
T3 construct: generated using CRISPR technology to introduce the additional C797S mutation by Horizon Discovery; host or cells: NCI-H1975+CS (CRISPR knock-in of C797S)
Briefly: Phospho-EGFR (pY1068) inhibition HTRF, NCI-H1975+CS. Particulars: 6 hours, read-out: pEGFR IC50.
Description: as §1, §2

Assay [6] has as its system BaF3 cells expressing EGFR L858R-C797S. The assay is described as follows: Ba/F3 EGFR cell viability (CellTiter-Glo), L858R-C797S. Particulars: Mus musculus, read-out: CTGlo (GI50).
Description: as §3, §4

The target of assay [7] is T4, EGFR L858R-T790M (Homo sapiens, UniProt P00533, L858R/T790M).
T4 construct: NCI-H1975 (harboring EGFR heterozygous L858R-T790M mutations); host or cells: NCI-H1975
The assay is described as follows: EGFR degradation, Total EGFR (L858R-specific) HTRF, NCI-H1975. The note with it: Table 9A; NCI-H1975 cells, 6 hours, Total EGFR HTRF; read-out: H1975 EGFR DC50. In a few lines:
(§5)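 Cells in RPMI 1640 + 10% FBS treated 6 h at 37°C with compound, 11-point half-log titration from 10 μM top, in duplicate. pY1068 and total EGFR read by HTRF (pan-EGFR antibody for wild-type A431; L858R-specific for mutants); IC50 for phospho inhibition, DC50 for 50% degradation.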

Assay [8] deals with BaF3 cells expressing EGFR L858R. Briefly: Ba/F3 EGFR cell viability (CellTiter-Glo), L858R. Particulars: Mus musculus, read-out: CTGlo (GI50).
Description: as §3, §4

Assay [9] relates to BaF3 cells expressing EGFR L858R-T790M-C797S. Briefly: Ba/F3 EGFR cell viability (CellTiter-Glo), L858R-T790M-C797S. The note with it: Mus musculus, read-out: CTGlo (GI50).
Description: as §3, §4

For assay [10], the target named is EGFR L858R (Homo sapiens, UniProt P00533, L858R). The assay is described as follows: EGFR degradation, Total EGFR (L858R-specific) HTRF, NCI-H3255. Further details: NCI-H3255 (harboring EGFR heterozygous L858R mutation); host or cells: NCI-H3255. The note with it: H3255 (L858R), 6 hours; read-out: tEGFR DC50. Summed up: as §5
The target of assay [11] is T5, pY1068 EGFR L858R (Homo sapiens, UniProt P00533, L858R).
T5 construct: NCI-H3255 (harboring EGFR heterozygous L858R mutation); host or cells: NCI-H3255
Briefly: Phospho-EGFR (pY1068) inhibition HTRF, NCI-H3255. Particulars: 6 hours, read-out: pEGFR IC50.
Description: as §1, §2

Assay [12] concerns the target T6, EGFR L858R-T790M-C797S (Homo sapiens, UniProt P00533, C797S/L858R/T790M).
T6 construct: generated using CRISPR technology to introduce the additional C797S mutation by Horizon Discovery; host or cells: NCI-H1975+CS (CRISPR knock-in of C797S)
Briefly: EGFR degradation, Total EGFR (L858R-specific) HTRF, NCI-H1975+CS. Particulars: H1975 + CS (L858R-T790M-C797S), 6 hours; read-out: tEGFR DC50. Summed up:
as §5

SMILES strings stand for the structures.

This is an account of results in patent publication US20240158418A1 (C4 Therapeutics, Inc., priority 2021, published 2024).

T3 sequence (P00533 25-1210 T790M/C797S/L858R): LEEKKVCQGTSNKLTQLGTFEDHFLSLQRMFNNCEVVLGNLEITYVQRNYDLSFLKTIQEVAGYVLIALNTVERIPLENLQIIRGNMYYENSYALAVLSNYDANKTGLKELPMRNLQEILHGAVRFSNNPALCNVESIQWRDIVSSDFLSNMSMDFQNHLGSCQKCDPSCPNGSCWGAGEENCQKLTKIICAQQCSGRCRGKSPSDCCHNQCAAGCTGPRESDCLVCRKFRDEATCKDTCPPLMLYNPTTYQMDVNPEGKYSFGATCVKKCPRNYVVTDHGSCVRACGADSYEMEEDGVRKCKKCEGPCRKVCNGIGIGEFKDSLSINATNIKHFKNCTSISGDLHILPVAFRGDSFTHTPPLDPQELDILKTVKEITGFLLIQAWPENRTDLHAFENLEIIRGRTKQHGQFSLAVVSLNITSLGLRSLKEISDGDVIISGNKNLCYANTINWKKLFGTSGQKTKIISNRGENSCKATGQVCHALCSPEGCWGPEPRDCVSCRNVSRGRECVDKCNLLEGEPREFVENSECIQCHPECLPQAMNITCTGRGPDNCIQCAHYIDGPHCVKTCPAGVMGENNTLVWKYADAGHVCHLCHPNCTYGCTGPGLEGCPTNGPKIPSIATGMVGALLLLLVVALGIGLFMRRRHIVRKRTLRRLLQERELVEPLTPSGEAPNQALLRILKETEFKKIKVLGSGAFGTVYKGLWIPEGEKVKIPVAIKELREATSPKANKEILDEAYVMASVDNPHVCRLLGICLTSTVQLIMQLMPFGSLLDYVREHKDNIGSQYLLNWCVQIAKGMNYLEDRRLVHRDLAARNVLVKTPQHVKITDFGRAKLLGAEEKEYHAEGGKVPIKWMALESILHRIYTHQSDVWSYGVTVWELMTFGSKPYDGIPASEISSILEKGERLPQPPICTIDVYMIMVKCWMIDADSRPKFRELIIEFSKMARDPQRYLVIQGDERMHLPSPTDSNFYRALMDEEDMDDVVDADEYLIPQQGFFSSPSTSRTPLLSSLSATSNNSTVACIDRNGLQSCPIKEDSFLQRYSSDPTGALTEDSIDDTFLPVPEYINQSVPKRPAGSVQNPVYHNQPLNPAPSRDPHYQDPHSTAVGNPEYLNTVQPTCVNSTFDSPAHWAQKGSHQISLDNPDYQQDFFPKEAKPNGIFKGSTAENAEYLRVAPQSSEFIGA
T6 sequence (P00533 25-1210 T790M/C797S/L858R): as above
Sequence of EGFR L858R (P00533 25-1210 L858R): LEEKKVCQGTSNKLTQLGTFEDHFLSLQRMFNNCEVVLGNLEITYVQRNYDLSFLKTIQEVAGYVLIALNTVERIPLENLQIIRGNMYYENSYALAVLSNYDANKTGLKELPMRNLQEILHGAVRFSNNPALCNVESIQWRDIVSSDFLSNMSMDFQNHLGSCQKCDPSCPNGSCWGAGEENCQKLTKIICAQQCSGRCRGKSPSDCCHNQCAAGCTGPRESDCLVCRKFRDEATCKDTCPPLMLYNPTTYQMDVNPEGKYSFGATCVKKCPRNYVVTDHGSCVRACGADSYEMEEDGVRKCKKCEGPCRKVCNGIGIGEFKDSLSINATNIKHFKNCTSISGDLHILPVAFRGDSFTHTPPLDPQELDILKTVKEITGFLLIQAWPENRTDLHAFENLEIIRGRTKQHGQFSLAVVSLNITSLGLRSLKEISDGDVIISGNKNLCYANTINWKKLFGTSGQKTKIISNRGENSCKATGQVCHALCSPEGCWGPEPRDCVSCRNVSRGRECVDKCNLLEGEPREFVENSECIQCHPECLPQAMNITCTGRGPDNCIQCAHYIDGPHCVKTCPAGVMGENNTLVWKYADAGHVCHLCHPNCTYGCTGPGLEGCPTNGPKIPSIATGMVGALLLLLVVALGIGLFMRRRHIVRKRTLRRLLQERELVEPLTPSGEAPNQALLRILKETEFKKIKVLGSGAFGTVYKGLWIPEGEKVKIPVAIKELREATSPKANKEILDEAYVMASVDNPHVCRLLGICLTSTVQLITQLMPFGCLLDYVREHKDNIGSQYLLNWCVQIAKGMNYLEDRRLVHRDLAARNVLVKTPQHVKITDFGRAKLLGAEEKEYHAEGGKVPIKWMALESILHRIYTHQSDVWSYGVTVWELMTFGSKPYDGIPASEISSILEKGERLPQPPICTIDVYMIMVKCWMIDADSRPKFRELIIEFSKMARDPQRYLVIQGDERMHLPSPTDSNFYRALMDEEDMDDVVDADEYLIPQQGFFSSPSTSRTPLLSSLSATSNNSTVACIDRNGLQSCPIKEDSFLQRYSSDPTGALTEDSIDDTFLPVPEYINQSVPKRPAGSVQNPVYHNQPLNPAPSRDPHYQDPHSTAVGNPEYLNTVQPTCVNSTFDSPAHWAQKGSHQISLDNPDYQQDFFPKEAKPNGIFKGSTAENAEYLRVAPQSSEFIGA
T5 sequence (P00533 25-1210 L858R): as above

As for `Cn1nc(N2CCC(=O)NC2=O)c2ccc(C3CCN(CC(=O)N4CC5(C4)CN(c4ccc(-c6cc(F)c7c(c6)C(=O)N(C(C(=O)Nc6nccs6)c6ncn8c6CCC8)C7)cc4)C5)CC3(F)F)cc21` (stereo not drawn) [Compound 3, 2-(6,7-dihydro-5H-pyrrolo[1,2-c]imidazol-1-yl)-2-[6-[4-[2-[2-[4-[3-(2,4-dioxohexahydropyrimidin-1-yl)-1-methyl-indazol-6-yl]-3,3-difluoro-1-piperidyl]acetyl]-2,6-diazaspiro[3.3]heptan-6-yl]phenyl]-4-fluoro-1-oxo-isoindolin-2-yl]-N-thiazol-2-yl-acetamide], the DC50 was over 10000 nM in [1], under 50 nM in [7], 8 nM in assay [10] and 33 nM in [12]. Also, the concentration for 50% growth inhibition (GI50) came to 248 nM in [2]; 9 nM in assay [3]; 2 nM in assay [6]; 3 nM in [8]; 3 nM in assay [9]. Besides, the results for the IC50 in assay [4], in [5] and in [11] were 11 nM, 19 nM and 8 nM, respectively.

Broadly, the DC50 is the concentration at which degradation of the target reaches its halfway point. In general, GI50 refers to the concentration at which growth is held to half of that of the control. As a reminder, the IC50 is the concentration that gives 50% inhibition.
